Structures are written as SMILES.

One data set concerns the target CYP450 2A6 (Homo sapiens, UniProt P11509). The experiment in a line: CYP450 inhibition of substrate binding.
For a further data set, the target named is CYP450 2B6 (Homo sapiens, UniProt P20813).
Data set [1] in a line: Stability in pooled mouse liver microsomes. The data set is classed as in vitro ADME. To be noted: microsomes, 37°C, upper limit 100 min, read-out: t ½ in liver microsomes. How it is done: (§1) The stability of compounds when subjected to hepatic and plasma degradation was assessed in vitro by Inpharmatica, Cambridge, UK. Compounds (1 μM) were incubated with either pooled mouse liver microsomes (0.1 mg protein mL^−1) or pooled mouse plasma at 37°C for 0, 5, 10, 20 and 40 min before termination with acetonitrile containing warfarin as an analytical internal standard. Samples were centrifuged, and the resultant supernatant analysed for parent compound. The mass responses at baseline were taken as the 100% reference values against which the disappearance of the compound was measured. The natural log of the % remaining values was used to generate linear plots of disappearance of the compounds. Half‐life values were calculated from the slope of these plots. Hepatocyte metabolism was assessed by Cyprotex, Macclesfield, and 10 μM VSN16R was incubated with primary mouse, rat, monkey (Macaque) and human hepatocytes for 1 h, and the presence of metabolites was assessed using liquid […] mass spectroscopy. The stability of VSN16R was assessed in vivo by Inpharmatica, Cyprotex and Charles Rivers, Cambridge. Blood (plasma) samples were obtained prior to and 5 min to 24 h after drug administration of 2–5 mg·kg^−1 i.v. or 5 mg·kg^−1 p.o. VSN16R into outbred mice and rats (n = 3 per time point). […] Data are expressed as mean ± SEM. […]
A general note: Liver microsomes are a subcellular fraction often used to study metabolism.

A short description of data set [2]: Stability in pooled mouse plasma. To be noted: 37°C, upper limit 100 min, read-out: t ½ in plasma. The data set is classed as in vitro ADME. How it is done:
as §1

The subject of a further data set is mouse vas deferens. Nature of the data set: Electrically‐evoked contraction of the mouse vas deferens. The data set is classed as cell-based. To be noted: Mus musculus, read-out: EC50, inhibition of electrically‐evoked contraction. As to the method:
Vasa deferentia were obtained from outbred MF‐1 mice and mounted vertically in a 4 mL organ bath at an initial tension of 0.5 g. The baths contained Mg^2+‐free Krebs solution (NaCl 118.2 mM, KCl 4.75 mM, KH2PO4 1.19 mM, NaHCO3 25.0 mM, glucose 11.0 mM and CaCl2·6H2O 2.54 mM), which was kept at 35–36°C and bubbled with 95% O2 and 5% CO2. […] Contractions were monitored by a computer using a data recording and analysis system as described previously (Ross et al., 2001). After placement in an organ bath, each tissue was subjected to a stimulation‐free period of 10 min and then stimulated for 10 min. Tissues were then subjected to alternate periods of stimulation (5 min) and rest (10 min) until consistent twitch amplitudes were obtained. This equilibration procedure was followed by a stimulation‐free period of 25 min. Tissues were then stimulated for 5 min after which the first agonist addition was made and stimulation continued until the end of the experiment.

The nature of data set [3]: Plasma, brain and spinal cord levels in ABH mice with spastic EAE. The data set is classed as in vivo, mouse. The note with it: after 5 mg·kg^−1 p.o. VSN16R, ABH mice with spastic EAE. As to the method: (§2) The stability of compounds when subjected to hepatic and plasma degradation was assessed in vitro by Inpharmatica, Cambridge, UK. Compounds (1 μM) were incubated with either pooled mouse liver microsomes (0.1 mg protein mL^−1) or pooled mouse plasma at 37°C for 0, 5, 10, 20 and 40 min before termination with acetonitrile containing warfarin as an analytical internal standard. Samples were centrifuged, and the resultant supernatant analysed for parent compound. The mass responses at baseline were taken as the 100% reference values against which the disappearance of the compound was measured. The natural log of the % remaining values was used to generate linear plots of disappearance of the compounds. Half‐life values were calculated from the slope of these plots. Hepatocyte metabolism was assessed by Cyprotex, Macclesfield, and 10 μM VSN16R was incubated with primary mouse, rat, monkey (Macaque) and human hepatocytes for 1 h, and the presence of metabolites was assessed using liquid […] mass spectroscopy. The stability of VSN16R was assessed in vivo by Inpharmatica, Cyprotex and Charles Rivers, Cambridge. Blood (plasma) samples were obtained prior to and 5 min to 24 h after drug administration of 2–5 mg·kg^−1 i.v. or 5 mg·kg^−1 p.o. VSN16R into outbred mice and rats (n = 3 per time point). In addition, plasma, brain and spinal cord samples were obtained from ABH with spastic EAE. Immediately after blood collection, the brain and spinal cord were removed and then stored at −20°C prior to assay. Tissue samples were weighed, homogenized and centrifuged, and the lysates generated. Brain lysates and plasma were assayed by LC–MS methods by Inpharmatica/Charles Rivers, Cambridge, UK. This was also performed using a Waters Xevo TQ or API4000, AB Sciex mass spectrometer using spiked samples as standards. PK Solutions Software (Summit Research Services, Montrose, CO, USA), AB Sciex Analyst software combined with Thermo Fisher Scientific Watson LIMS processing and reporting software or WinNonLin pharmacokinetic or PK solutions 2.0 software (Summit Research Services, Montrose CO, USA) were used to produce PK parameters. Data are expressed as mean ± SEM. The detection limit of VSN16R was 2 ng·mL^−1 in plasma and brain and 14 ng·mL^−1 in spinal cords. The detection limit of VSN22R was 2 ng·mL^−1 in plasma and 0.1 ng·mL^−1 for VSN44R in plasma. Pharmacokinetics in toxicological samples in rats (n = 6 per group), dogs (n = 6 per group) and humans (n = 6 per group) were performed by Charles Rivers (Edinburgh, UK).

Data set [4] is described as follows: Phase I pharmacokinetics in healthy humans. Type of data set: in vivo, human. To be noted: male, human, plasma, oral; twice daily dosing of VSN16R; read-out: Steady‐state plasma levels. How it is done:
as §2, with “cords.” for “cords. The detection limit of VSN22R was 2 ng·mL^−1 in plasma and 0.1 ng·mL^−1 for VSN44R in plasma. Pharmacokinetics in toxicological samples in rats (n = 6 per group), dogs (n = 6 per group) and humans (n = 6 per group) were performed by Charles Rivers (Edinburgh, UK).”

The target in a further data set is T1, BKCa channel (Homo sapiens, UniProt Q12791+Q86W47).
T1 construct: host or cells: EA.hy926 endothelial cells
The experiment in a line: Single‐channel inside‐out patch clamp, EA.hy926 cells. The data set is classed as cell-based. The note with it: 3 μM, inner surface of membrane, 40 mV, 0.3 μM free Ca^2+. How it is done:
The human EA.hy926 endothelial cells (ATCC, Manassas, USA) were grown in DMEM containing 10% FCS and 1% HAT (5 mM hypoxanthine, 20 μM aminopterin and 0.8 mM thymidine) and were maintained in an incubator at 37°C in 5% CO2 atmosphere (Bondarenko et al., 2013). Human HNC‐2 neuronal cells were obtained from ATCC. For experiments, cells were plated on glass coverslips. Single‐channel recordings were obtained from excised inside‐out membrane patches in symmetrical solutions using the patch‐clamp technique. All patch‐clamp experiments were performed at room temperature with the use of a water hydraulic micromanipulator (WR‐6, Narishige, Japan). […] The pipettes were filled with 140 mM KCl, 10 mM HEPES, 1 mM MgCl2, 5 mM EGTA and […] CaCl2 buffered to pH 7.2 by adding KOH. Cells were super‐perfused with a bath solution containing 140 mM NaCl, 5 mM KCl, 1.2 mM MgCl2, 10 mM HEPES, 10 mM glucose and 2.4 mM CaCl2. Following gigaseal formation, bath solution was switched to the following: 140 mM KCl, 10 mM HEPES, 1 mM MgCl2, 5 mM EGTA and a designated free Ca^2+ concentration, which was adjusted by adding different amounts of CaCl2 buffered to pH 7.2. (Bondarenko et al., 2011; Bondarenko et al., 2013). Single‐channel activity was expressed as NPo, where N represents the number of functional ion channels in the membrane patch and Po represents the open channel probability determined from idealized traces (Bondarenko et al., 2011). NPo was obtained from ≥20 s of continuous recording under each experimental condition. The effect of VSN16R was estimated after 3 min of continuous exposure to VSN16R‐containing solution. Data were analysed by ANOVA, and statistical significance was evaluated using Scheffés post hoc test of the Prism 5 software for Windows (GraphPad Software).

For data set [5], the system named is spastic ABH mice with EAE. The experiment in a line: Spasticity: resistance to hindlimb flexion against a strain gauge. To be noted: 5 mg·kg^−1 i.v.
Data set [6] relates to rat mesenteric artery. The arrangement: method as in Hoi et al., 2007. To be noted: ref Hoi et al., 2007; read-out: EC50, vasorelaxation of rat mesenteric arteries; cited from earlier work.
The subject of data set [7] is rat mesenteric artery. The experiment in a line: Methoxamine‐evoked contraction of rat mesenteric artery. To be noted: 200 µM. The data set is classed as cell-based. As to the method: Vessels were equilibrated and set to a basal tension of 2 to 2.5 mN. The integrity of the endothelium was assessed by pre‐contracting the vessel with 10 μM methoxamine (an α1‐adrenoceptor agonist), followed by relaxation with 10 μM carbachol (a muscarinic acetylcholine receptor agonist); vessels showing relaxations of greater than 90% were designated as endothelium‐intact. When the endothelium was not required, it was removed by rubbing the intima with a human hair; carbachol‐induced relaxation of less than 10% indicated successful removal. After the test for endothelial integrity, vessels were left for 30 min and then pre‐contracted with 10 μM methoxamine. This was followed by construction of a cumulative concentration–relaxation curve to VSN16R (10 nM–1 μM). […] Most experiments were performed in matched vessels; effects of blockers or endothelial removal were compared with the control responses obtained in separate vessels of the same rats. All relaxant responses are expressed as percentage relaxation of the tone induced by methoxamine. Values are given as mean ± SEM. Statistical comparisons of concentration‐dependent responses were made by two‐way ANOVA using Prism 4 (GraphPad Software, Inc, San Diego, CA, USA).

For a further data set, the system named is BKCa channels. The arrangement: method as in Denson DD et al. Brain Res 638:61. To be noted: ref Denson DD et al. Brain Res 638:61; read-out: EC50, inhibition of inside-out current of BKCa channels; cited from earlier work.

Chain of CYP450 2A6 (P11509 whole entry): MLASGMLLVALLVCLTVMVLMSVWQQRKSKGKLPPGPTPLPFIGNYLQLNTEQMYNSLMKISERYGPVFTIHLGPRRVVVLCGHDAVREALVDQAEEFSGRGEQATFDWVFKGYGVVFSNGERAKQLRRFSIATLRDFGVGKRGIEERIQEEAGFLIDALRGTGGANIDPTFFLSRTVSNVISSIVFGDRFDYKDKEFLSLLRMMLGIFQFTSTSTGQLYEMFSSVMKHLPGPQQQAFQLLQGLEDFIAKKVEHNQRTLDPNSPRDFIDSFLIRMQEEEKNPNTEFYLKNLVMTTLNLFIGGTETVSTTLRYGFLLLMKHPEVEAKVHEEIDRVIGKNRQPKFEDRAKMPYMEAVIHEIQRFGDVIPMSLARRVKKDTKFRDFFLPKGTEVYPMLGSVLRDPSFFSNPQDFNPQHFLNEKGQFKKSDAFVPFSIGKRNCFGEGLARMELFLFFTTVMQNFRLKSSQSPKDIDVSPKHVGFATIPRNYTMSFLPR
T1 sequence (Q12791 whole entry): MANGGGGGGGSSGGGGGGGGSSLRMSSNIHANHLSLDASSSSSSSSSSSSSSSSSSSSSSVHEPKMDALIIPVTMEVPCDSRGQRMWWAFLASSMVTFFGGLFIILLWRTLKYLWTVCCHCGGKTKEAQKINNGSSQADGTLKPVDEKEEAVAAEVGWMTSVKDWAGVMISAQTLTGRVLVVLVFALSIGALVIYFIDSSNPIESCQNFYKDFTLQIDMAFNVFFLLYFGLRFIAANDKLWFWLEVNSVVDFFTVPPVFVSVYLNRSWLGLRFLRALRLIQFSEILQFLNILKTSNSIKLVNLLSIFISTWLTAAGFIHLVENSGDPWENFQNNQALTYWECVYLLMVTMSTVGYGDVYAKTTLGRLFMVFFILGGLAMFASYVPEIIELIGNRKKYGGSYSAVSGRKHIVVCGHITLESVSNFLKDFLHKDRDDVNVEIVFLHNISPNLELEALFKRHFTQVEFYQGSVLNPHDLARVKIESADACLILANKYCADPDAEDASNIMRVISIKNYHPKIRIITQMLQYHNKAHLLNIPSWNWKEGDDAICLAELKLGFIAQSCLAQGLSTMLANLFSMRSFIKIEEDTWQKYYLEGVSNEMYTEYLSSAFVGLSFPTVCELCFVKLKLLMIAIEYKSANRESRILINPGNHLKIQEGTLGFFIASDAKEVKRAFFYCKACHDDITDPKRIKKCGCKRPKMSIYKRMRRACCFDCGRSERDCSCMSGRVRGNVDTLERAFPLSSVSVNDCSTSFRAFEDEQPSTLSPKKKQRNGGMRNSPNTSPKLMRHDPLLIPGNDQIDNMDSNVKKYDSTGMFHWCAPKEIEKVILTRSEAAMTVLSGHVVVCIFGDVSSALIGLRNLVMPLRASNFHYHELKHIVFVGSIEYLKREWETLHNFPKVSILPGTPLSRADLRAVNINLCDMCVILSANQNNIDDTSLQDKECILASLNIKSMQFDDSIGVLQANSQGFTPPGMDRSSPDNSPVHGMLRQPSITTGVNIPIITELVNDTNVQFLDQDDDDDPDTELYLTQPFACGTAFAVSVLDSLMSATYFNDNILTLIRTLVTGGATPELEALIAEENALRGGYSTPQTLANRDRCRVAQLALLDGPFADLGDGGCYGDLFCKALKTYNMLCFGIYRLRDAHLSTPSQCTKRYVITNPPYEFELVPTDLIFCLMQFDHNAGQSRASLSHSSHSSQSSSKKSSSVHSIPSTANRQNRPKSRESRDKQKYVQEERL
T1 sequence (Q86W47 whole entry): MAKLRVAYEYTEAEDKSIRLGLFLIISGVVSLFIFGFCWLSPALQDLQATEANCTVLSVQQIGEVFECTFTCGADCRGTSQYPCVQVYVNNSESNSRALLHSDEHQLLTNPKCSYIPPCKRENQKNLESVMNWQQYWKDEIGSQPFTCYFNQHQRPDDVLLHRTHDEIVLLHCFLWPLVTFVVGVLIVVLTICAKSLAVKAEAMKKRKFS
Chain of CYP450 2B6 (P20813 whole entry): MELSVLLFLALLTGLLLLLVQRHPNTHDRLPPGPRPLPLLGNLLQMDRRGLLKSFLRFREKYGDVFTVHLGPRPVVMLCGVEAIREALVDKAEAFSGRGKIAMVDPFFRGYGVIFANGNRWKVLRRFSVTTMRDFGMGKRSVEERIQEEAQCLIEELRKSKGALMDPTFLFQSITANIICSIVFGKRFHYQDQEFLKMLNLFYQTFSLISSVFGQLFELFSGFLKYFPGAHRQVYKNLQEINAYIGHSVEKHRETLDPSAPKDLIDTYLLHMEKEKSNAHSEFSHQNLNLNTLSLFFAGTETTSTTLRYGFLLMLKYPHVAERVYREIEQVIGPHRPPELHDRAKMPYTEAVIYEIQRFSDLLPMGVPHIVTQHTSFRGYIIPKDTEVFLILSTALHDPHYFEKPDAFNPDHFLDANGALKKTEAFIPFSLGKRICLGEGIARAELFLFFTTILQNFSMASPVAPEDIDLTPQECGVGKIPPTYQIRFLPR
Text for CYP450 2A6: IC50 Inhibition of substrate binding
(§3) Inhibition of binding of either 3-cyano-7-ethoxycoumarin, dibenzylfluorescein or 7-benzyoxy-4-
(§4) (trifluoromethyl) coumarin in human enzyme transfected BTI NN-5B1-4 cells or Sf9 insect cells or
(§5) inhibition of dextromethorphan substrate to CYP450 2D6 in liver microsomes.
Text for CYP450 2B6: IC50 Inhibition of substrate binding
as §3, §4, §5

As usually defined, the EC50 is the midpoint of the concentration-response curve. In turn, `N[C@@H]1C[C@H]1c1ccccc1` (racemic) [Tranylcypromine, reference compound] yielded an EC50 on CYP450 2A6 of 0.2 µM.

The compound `CC(=O)N1CCN(c2ccc(OCC3COC(Cn4ccnc4)(c4ccc(Cl)cc4Cl)O3)cc2)CC1` (stereo not shown) [Ketoconazole, reference compound] displayed a half-maximal effective concentration (EC50) on CYP450 2B6 of 2.9 µM.

On to `Cc1ncc2n1-c1ccc(Cl)cc1C(c1ccccc1F)=NC2` [midazolam, reference compound], for which, in data set [1], the half-life at 1 μM stood at 17 min.

For `CC(=O)Oc1ccc(C(c2ccc(OC(C)=O)cc2)c2ccccn2)cc1` [bisacodyl, reference compound], in data set [2], the half-life at 1 μM was 2 min.

For `CNC(=O)CCC/C=C\c1cccc(C(=O)N[C@H](C)CO)c1` [VSN22R, (R,Z)‐N‐(1‐hydroxypropan‐2‐yl)‐3‐(6‐(methylamino)‐6‐oxohex‐1‐en‐1‐yl)benzamide], the EC50 with mouse vas deferens turned out to be 0.009 µM. Moreover, the “Plasma level of the named species” value in data set [3] was 106 ± 6.1 ng/mL. Further, the concentration at 1 week in [4] is over 100 nM. The “Single BKCa channel activity” value on BKCa channel is listed as “facilitated single BKCa channel activity”. Moreover, in [5], the Inhibition of spasticity entry is “could inhibit the spasticity”.

Consider `C[C@@H](CO)NC(=O)c1cccc(/C=C\CCCC(=O)N(C)C)c1` [VSN16S], for which the results for the EC50 in the data set with mouse vas deferens and in the data set on rat mesenteric artery [6] were 0.037 µM and 0.14 µM, respectively.

Regarding `CNC1(c2ccccc2Cl)CCCCC1=O` (stereo not shown) [ketamine], in the data set with rat mesenteric artery [7], the “Effect on VSN16R relaxation of methoxamine-evoked contraction” value is “can inhibit the mechanism of action of VSN16R”. Further, the EC50 in the data set on BKCa channels is about 25 µM.

Values taken from article PMC5522996, “Big conductance calcium‐activated potassium channel openers control spasticity without sedation” (British Journal of Pharmacology, 2017).
